Source: the NIST ThermoML archive (doi:10.1021/je100256w)

Assay: cn = amount concentration of the nth substance listed, in mol/dm3
Settings: 101 kPa, Liquid, Dip Cell

SMILES: CCCCCCCCCCCCCCCC[N+](C)(C)CCCC[N+](C)(C)CCCCCCCCCCCCCCCC.[Br-].[Br-] + O
- electrical conductivity (298 K, c1 = 3.3e-06): 6.6e-05 S/m
- electrical conductivity (298 K, c1 = 6.6e-06): 0.000121 S/m
- electrical conductivity (298 K, c1 = 9.9e-06): 0.000187 S/m
- electrical conductivity (298 K, c1 = 1.32e-05): 0.000256 S/m
- electrical conductivity (298 K, c1 = 1.64e-05): 0.000326 S/m
- electrical conductivity (298 K, c1 = 1.96e-05): 0.000397 S/m
- electrical conductivity (298 K, c1 = 2.28e-05): 0.000463 S/m
- electrical conductivity (298 K, c1 = 2.6e-05): 0.000539 S/m
- electrical conductivity (298 K, c1 = 2.91e-05): 0.000615 S/m
- electrical conductivity (298 K, c1 = 3.23e-05): 0.00067 S/m
- electrical conductivity (298 K, c1 = 3.54e-05): 0.000736 S/m
- electrical conductivity (298 K, c1 = 3.85e-05): 0.000789 S/m
- electrical conductivity (298 K, c1 = 4.15e-05): 0.000856 S/m
- electrical conductivity (298 K, c1 = 4.46e-05): 0.000916 S/m
- electrical conductivity (298 K, c1 = 4.76e-05): 0.000962 S/m
- electrical conductivity (298 K, c1 = 5.06e-05): 0.001 S/m
- electrical conductivity (298 K, c1 = 5.36e-05): 0.00105 S/m
- electrical conductivity (298 K, c1 = 5.66e-05): 0.0011 S/m
- electrical conductivity (298 K, c1 = 5.96e-05): 0.00116 S/m
- electrical conductivity (298 K, c1 = 6.25e-05): 0.00121 S/m
- electrical conductivity (298 K, c1 = 6.54e-05): 0.00126 S/m
- electrical conductivity (298 K, c1 = 6.83e-05): 0.0013 S/m
- electrical conductivity (298 K, c1 = 7.12e-05): 0.00134 S/m
- electrical conductivity (298 K, c1 = 7.41e-05): 0.0014 S/m
- electrical conductivity (303 K, c1 = 3.3e-06): 6.6e-05 S/m
- electrical conductivity (303 K, c1 = 6.6e-06): 0.000134 S/m
- electrical conductivity (303 K, c1 = 9.9e-06): 0.000196 S/m
- electrical conductivity (303 K, c1 = 1.32e-05): 0.000274 S/m
- electrical conductivity (303 K, c1 = 1.64e-05): 0.000336 S/m
- electrical conductivity (303 K, c1 = 1.96e-05): 0.000407 S/m
- electrical conductivity (303 K, c1 = 2.28e-05): 0.000486 S/m
- electrical conductivity (303 K, c1 = 2.6e-05): 0.000539 S/m
- electrical conductivity (303 K, c1 = 2.91e-05): 0.000626 S/m
- electrical conductivity (303 K, c1 = 3.23e-05): 0.000679 S/m
- electrical conductivity (303 K, c1 = 3.54e-05): 0.000746 S/m
- electrical conductivity (303 K, c1 = 3.85e-05): 0.000799 S/m
- electrical conductivity (303 K, c1 = 4.15e-05): 0.000866 S/m
- electrical conductivity (303 K, c1 = 4.46e-05): 0.000926 S/m
- electrical conductivity (303 K, c1 = 4.76e-05): 0.000985 S/m
- electrical conductivity (303 K, c1 = 5.06e-05): 0.00102 S/m
- electrical conductivity (303 K, c1 = 5.36e-05): 0.00106 S/m
- electrical conductivity (303 K, c1 = 5.66e-05): 0.00112 S/m
- electrical conductivity (303 K, c1 = 5.96e-05): 0.00118 S/m
- electrical conductivity (303 K, c1 = 6.25e-05): 0.00123 S/m
- electrical conductivity (303 K, c1 = 6.54e-05): 0.00126 S/m
- electrical conductivity (303 K, c1 = 6.83e-05): 0.00131 S/m
- electrical conductivity (303 K, c1 = 7.12e-05): 0.00137 S/m
- electrical conductivity (308 K, c1 = 3.3e-06): 6.7e-05 S/m
- electrical conductivity (308 K, c1 = 6.6e-06): 0.00015 S/m
- electrical conductivity (308 K, c1 = 9.9e-06): 0.000207 S/m
- electrical conductivity (308 K, c1 = 1.32e-05): 0.00029 S/m
- electrical conductivity (308 K, c1 = 1.64e-05): 0.000346 S/m
- electrical conductivity (308 K, c1 = 1.96e-05): 0.000429 S/m
- electrical conductivity (308 K, c1 = 2.28e-05): 0.000507 S/m
- electrical conductivity (308 K, c1 = 2.6e-05): 0.000559 S/m
- electrical conductivity (308 K, c1 = 2.91e-05): 0.000642 S/m
- electrical conductivity (308 K, c1 = 3.23e-05): 0.000695 S/m
- electrical conductivity (308 K, c1 = 3.54e-05): 0.000766 S/m
- electrical conductivity (308 K, c1 = 3.85e-05): 0.000799 S/m
- electrical conductivity (308 K, c1 = 4.15e-05): 0.000889 S/m
- electrical conductivity (308 K, c1 = 4.46e-05): 0.000946 S/m
- electrical conductivity (308 K, c1 = 4.76e-05): 0.001 S/m
- electrical conductivity (308 K, c1 = 5.06e-05): 0.00105 S/m
- electrical conductivity (308 K, c1 = 5.36e-05): 0.00108 S/m
- electrical conductivity (308 K, c1 = 5.66e-05): 0.00113 S/m
- electrical conductivity (308 K, c1 = 5.96e-05): 0.0012 S/m
- electrical conductivity (308 K, c1 = 6.25e-05): 0.00125 S/m
- electrical conductivity (308 K, c1 = 6.54e-05): 0.00128 S/m
- electrical conductivity (308 K, c1 = 6.83e-05): 0.00133 S/m
- electrical conductivity (308 K, c1 = 7.12e-05): 0.00138 S/m
- electrical conductivity (313 K, c1 = 3.3e-06): 6.8e-05 S/m
- electrical conductivity (313 K, c1 = 6.6e-06): 0.00016 S/m
- electrical conductivity (313 K, c1 = 9.9e-06): 0.000227 S/m
- electrical conductivity (313 K, c1 = 1.32e-05): 0.000301 S/m
- electrical conductivity (313 K, c1 = 1.64e-05): 0.000372 S/m
- electrical conductivity (313 K, c1 = 1.96e-05): 0.000449 S/m
- electrical conductivity (313 K, c1 = 2.28e-05): 0.000527 S/m
- electrical conductivity (313 K, c1 = 2.6e-05): 0.000575 S/m
- electrical conductivity (313 K, c1 = 2.91e-05): 0.000666 S/m
- electrical conductivity (313 K, c1 = 3.23e-05): 0.000715 S/m
- electrical conductivity (313 K, c1 = 3.54e-05): 0.000787 S/m
- electrical conductivity (313 K, c1 = 3.85e-05): 0.000851 S/m
- electrical conductivity (313 K, c1 = 4.15e-05): 0.000901 S/m
- electrical conductivity (313 K, c1 = 4.46e-05): 0.000966 S/m
- electrical conductivity (313 K, c1 = 4.76e-05): 0.00103 S/m
- electrical conductivity (313 K, c1 = 5.06e-05): 0.00108 S/m
- electrical conductivity (313 K, c1 = 5.36e-05): 0.0011 S/m
- electrical conductivity (313 K, c1 = 5.66e-05): 0.00115 S/m
- electrical conductivity (313 K, c1 = 5.96e-05): 0.00122 S/m
- electrical conductivity (313 K, c1 = 6.25e-05): 0.00127 S/m
- electrical conductivity (313 K, c1 = 6.54e-05): 0.00133 S/m
- electrical conductivity (313 K, c1 = 6.83e-05): 0.00137 S/m
- electrical conductivity (313 K, c1 = 7.12e-05): 0.0014 S/m
